Literature values as cited in patent US20050181044A1, “Compositions and methods for timed release of water-soluble nutritional supplements, green coffee extract” (priority 2004, published 2005).

Details: absorbed by the gastrointestinal tract, after first-pass metabolism in the liver

Q: Which bioavailability does the source give for `N[C@H]1C(O)O[C@H](CO)[C@@H](O)[C@@H]1O` (stereo partly shown) [Glucosamine] here?
A: 26%
